Key:
[1] = in comparison to a 15 mg dose of hydrocodone
Description: In certain preferred embodiments, the opioid agonist is oxycodone or hydrocodone.

[2] = cited from earlier work; for Duration of action: after oral doses

Row | SMILES | Equianalgesic dose, Calculated Dose [1] | also measured
1 | COc1ccc2c3c1O[C@H]1[C@@H](O)C=C[C@H]4[C@@H](C2)N(C)CC[C@@]341 [Codeine] | 90.0 mg | 
2 | CN1CC[C@]23CCCC[C@H]2[C@H]1Cc1ccc(O)cc13 [Levorphanol] | 1.8 mg | 
3 | C[C@H]1[C@H]2Cc3ccc(O)cc3[C@]1(C)CCN2CC1CC1 [cyclazocine] |  | Duration of action [2]: ~24 h
4 | COc1ccc2c3c1O[C@H]1C(=O)CC[C@@]4(O)[C@@H](C2)N(C)CC[C@]314 [Oxycodone, 4,5-expoxy-14-hydroxy-3-methoxy-17-methylmorphinan-6-one] | 13.5 mg | 
5 | COc1ccc2c3c1OC1C(=O)CC[C@H]4[C@@H](C2)N(C)CC[C@]314 (stereo partly shown) [Hydrocodone, 4,5-epoxy-3-methoxy-17-methylmorphinan-6-one] | 15.0 mg | 
6 | O=C1CC[C@@]2(O)[C@H]3Cc4ccc(O)c5c4[C@@]2(CCN3CC2CC2)[C@H]1O5 [naltrexone] |  | Duration of action [2]: ~24 h; Protein binding ([2]; in vivo): approximately 21%; Oral bioavailability ([2]; oral administration): 5-40%; Time of absorption ([2]; oral administration): ≤ 1 h
7 | CCC(=O)C(CC(C)N(C)C)(c1ccccc1)c1ccccc1 (stereo not shown) [Methadone] | 9.0 mg | 

Reference: patent US8758825B2, “Sequestered antagonist formulations” (Purdue Pharma L.P., priority 2001, dated 2014)
